{"source": "ChEMBL document CHEMBL1155943", "about": "“Design of a sialylglycopolymer with a chitosan backbone having efficient inhibitory activity against influenza virus infection” (J Med Chem, 2008)", "key": {"[1]": {"tested_on": "Influenza B virus", "assay": "Antiviral activity against Influenza virus (B/Shanghai/361/2002) infected in MDCK cells assessed as sialic acid concentration", "format": "functional, organism-based", "conditions": "B/Shanghai/361/2002, MDCK"}, "[2]": {"tested_on": "Influenza A virus (A/Puerto Rico/8/1934(H1N1))", "assay": "Antiviral activity against human influenza virus (A/New Caledonia/20/1999 (H1N1)) infected in MDCK cells", "format": "functional, organism-based, Influenza A virus (A/New Caledonia/20/1999(H1N1))"}, "[3]": {"tested_on": "Influenza A virus (A/Puerto Rico/8/1934(H1N1))", "assay": "Antiviral activity against human influenza virus (A/New Caledonia/20/1999 (H1N1)) infected in MDCK cells assessed as sialic acid concentration", "format": "functional, organism-based, Influenza A virus (A/New Caledonia/20/1999(H1N1))"}, "[4]": {"tested_on": "Influenza A virus H3N2", "assay": "Antiviral activity against Influenza virus (A/Panama/2007/99 (H3N2)) infected in MDCK cells", "format": "functional, organism-based, Influenza A virus (A/Panama/2007/1999(H3N2))"}, "[5]": {"tested_on": "Influenza A virus H3N2", "assay": "Antiviral activity against Influenza virus (A/Panama/2007/99 (H3N2)) infected in MDCK cells assessed as sialic acid concentration", "format": "functional, organism-based, Influenza A virus (A/Panama/2007/1999(H3N2))"}, "[6]": {"tested_on": "Influenza B virus", "assay": "Antiviral activity against Influenza virus (B/Shanghai/361/2002) infected in MDCK cells", "format": "functional, organism-based", "conditions": "B/Shanghai/361/2002, MDCK"}}, "data": [{"smiles": "CC(=O)N[C@H]1[C@H]([C@H](O)[C@H](O)CO)O[C@](OC[C@H]2O[C@@H](O[C@@H]([C@H](O)[C@H](C=O)NC(C)=O)[C@H](O)CO)[C@H](O)[C@@H](O)[C@H]2O)(C(=O)O)C[C@@H]1O", "values": [{"measurement": "IC50", "setting": "[1]", "value": 14.8, "unit": "mM"}, {"measurement": "IC50", "setting": "[2]", "value": 2000, "unit": "µg/mL"}, {"measurement": "IC50", "setting": "[3]", "value": 3, "unit": "mM"}, {"measurement": "IC50", "setting": "[4]", "value": 3000, "unit": "µg/mL"}, {"measurement": "IC50", "setting": "[5]", "value": 4, "unit": "mM"}, {"measurement": "IC50", "setting": "[6]", "value": 10000, "unit": "µg/mL"}]}]}
